Measurements reported in patent EP4714939A1, “SULFONAMIDE COMPOUND, PREPARATION METHOD THEREFOR, AND PHARMACEUTICAL USE THEREOF” (Shenzhen Salubris Pharmaceuticals Co., Ltd., priority 2023, dated 2024).

Assays:
Lp(a) = test: In-vitro Lp(a) assembly assay (cell-free, sandwich ELISA); format: biochemical; conditions: inhibition of Lp(a) formation; HepG2 and HEK293 (human Apo(a), 17 Kringle repeats) conditioned media, 37°C, 2 hours; 4-parameter curve
Experimental: The capability of the compounds in the examples inhibiting the formation of Lp(a) particles in vitro was evaluated through cell-free assembly assay. After incubation at 37°C with 5% CO2 for 96 h, conditioned media (supplemented with 10% FBS, 20 mM HEPES, and 1 × penicillin/streptomycin DMEM) was collected from confluent wild-type HepG2 cells (source of endogenously expressed ApoB) and an HEK293 stable cell line expressing human Apo(a) protein containing 17 Kringle repeats (selected on 1 ug/ml puromycin). In-vitro assembly assay was performed by combining equal parts of HepG2 and HEK293 conditioned media with compounds under test added in a dilution series (final concentration being 0.03-1000 nM). A reaction was incubated at 37°C for 2 hours, and terminated by adding 6-aminocaproic acid (EACA) to a final concentration of 150 mM. Sandwich ELISA was used to detect Lp(a) using an anti-Apo(a) capture antibody (ab242565) and an HRP-conjugated anti-ApoB detection antibody (ab27622). ELISA was performed using TMB staining, and terminated with 1N sulfuric acid, and signals were read at 450 nm on an Envision 2104 plate reader. By setting an assembly reaction without inhibitors to 0% inhibition and an assembly reaction with the minimum amount of HepG2 conditioned medium (50-fold dilution) to 100% inhibition, the % inhibition of Lp(a) formed under each test condition was determined. Table 1 IC90 values of sulfonamide compounds

[1] = Pharmacokinetic experiment for monkeys; conditions: Cynomolgus monkey, 5 mg/kg, p.o
Excerpt: (§1) Cynomolgus monkey: male, 3-6 kg, purchased from Guangzhou Huazhen biotechnology Co., Ltd. and Hainan Jingang Biotech Co., Ltd.

in vivo = conditions: cynomolgus monkey
Excerpt: as §1

| IC90 (Lp(a)) | Structure (SMILES) | further results |
| --- | --- | --- |
| 45.8 nM | O=C(O)[C@@H](Cc1cccc(S(=O)(=O)N(Cc2ccc(F)c(C[C@H](C(=O)O)[C@H]3CCNC3)c2)Cc2ccc(F)c(C[C@H](C(=O)O)[C@H]3CCNC3)c2)c1)[C@H]1CCNC1 [Compound 9] | F [1]: 7.49%; AUC(0-t) (in vivo; po, 5 mg/kg): 22100 ng·h/mL; Cmax (in vivo; po, 5 mg/kg): 1690 ng/mL |
| 49.9 nM | O=C(O)[C@@H](Cc1cccc(CN(Cc2cccc(C[C@H](C(=O)O)[C@H]3CCNC3)c2)S(=O)(=O)c2cccc(C[C@H](C(=O)O)[C@H]3CCNC3)c2)c1)[C@H]1CCNC1 [Compound 1] | AUC(0-t) (in vivo; iv, 0.5 mg/kg): 41000 ng·h/mL; half-life (in vivo; iv, 0.5 mg/kg): 21 h |
| 26.1 nM | O=C(O)C(Cc1cccc(CN(Cc2cccc(CC(C(=O)O)C3CCNC3)c2)S(=O)(=O)c2cccc(CC(C(=O)O)C3CCNC3)c2F)c1)C1CCNC1 [Compound 8, (2S,2'S)-3,3'(3-(S)-2-carboxyl-2-(R)-pyrrolid-3-yl)ethyl)-2-fluorophenyl sulfonyl)azadiyl)dimethylenyl)bis(3,1-phenylenyl)bis(2-(R)-pyrrolid-3-yl)propanoic acid)] |  |
| 37.9 nM | O=C(O)[C@@H](Cc1cccc(CN(Cc2cccc(C[C@H](C(=O)O)[C@H]3CCNC3)c2F)S(=O)(=O)c2cccc(C[C@H](C(=O)O)[C@H]3CCNC3)c2)c1)[C@H]1CCNC1 [Compound 5] |  |
| 15.7 nM | O=C(O)C(Cc1cccc(S(=O)(=O)N(Cc2ccc(Cl)c(CC(C(=O)O)C3CCNC3)c2)Cc2ccc(Cl)c(CC(C(=O)O)C3CCNC3)c2)c1)C1CCNC1 [Compound 40, (2S,2'S)-3,3'-(3-((S)-2-carboxyl-2-((R)-pyrrolid-3-yl)ethyl)phenyl)sulfonyl)azadiyl)dimethylenyl)bis(6-chloro-3,1-phenylenyl)bis(2-(R)-pyrrolid-3-yl)propanoic acid)] |  |
| 25.8 nM | O=C(O)[C@@H](Cc1cccc(S(=O)(=O)N(CCc2ccccc2C[C@H](C(=O)O)[C@H]2CCNC2)Cc2ccc(F)c(C[C@H](C(=O)O)[C@H]3CCNC3)c2)c1)[C@H]1CCNC1 [Compound 24] |  |
| 40.9 nM | O=C(O)[C@@H](Cc1cccc(CCN(CCc2ccccc2C[C@H](C(=O)O)[C@H]2CCNC2)S(=O)(=O)c2cccc(C[C@H](C(=O)O)[C@H]3CCNC3)c2)c1)[C@H]1CCNC1 [Compound 19] |  |
| 24.9 nM | O=C(O)[C@@H](Cc1cccc(CN(Cc2ccc(Cl)c(C[C@H](C(=O)O)[C@H]3CCNC3)c2)S(=O)(=O)c2ccc(F)c(C[C@H](C(=O)O)[C@H]3CCNC3)c2)c1)[C@H]1CCNC1 [Compound 39, (S)-3-(5-(N-(3-((S)-2-carboxyl-2-((R)-pyrrolid-3-yl)ethyl)-4-chlorobenzyl)-N-(3-((S)-2-carboxyl-2-((R)-pyrrolid-3-yl)ethyl)benzyl)aminosulfonyl)-2-fluorophenyl)-2-((R)-pyrrolid-3-yl)propanoic acid] |  |
| 11.5 nM | O=C(O)[C@@H](Cc1cccc(S(=O)(=O)N(Cc2cc(C[C@H](C(=O)O)[C@H]3CCNC3)ccc2F)Cc2cc(C[C@H](C(=O)O)[C@H]3CCNC3)ccc2F)c1)[C@H]1CCNC1 [Compound 13] |  |
| 21.1 nM | O=C(O)C(Cc1cccc(S(=O)(=O)N(Cc2c(F)ccc(CC(C(=O)O)C3CCNC3)c2F)Cc2c(F)ccc(CC(C(=O)O)C3CCNC3)c2F)c1)C1CCNC1 [Compound 31, (2S,2'S)-3,3'-((3-((S)-2-carboxyl-2-(R)-pyrrolid-3-yl)ethyl)phenyl)sulfonyl)azadiyl)bis(methylenyl))bis(2,6-difluoro-3,1-phenylenyl)bis(2-(R)-pyrrolid-3-yl)propanoic acid)] |  |
| 38.1 nM | O=C(O)C(Cc1cccc(S(=O)(=O)N(Cc2ccc(Cl)c(CC(C(=O)O)C3CCNC3)c2)Cc2ccc(Cl)c(CC(C(=O)O)C3CCNC3)c2)c1)C1CCNC1 [Compound 41, (2S,2'S)-3,3'-(3-((S)-2-carboxyl-2-((R)-pyrrolid-3-yl)ethyl)phenyl)sulfonyl)azadiyl)dimethylenyl)bis(6-chloro-3,1-phenylenyl)bis(2-(R)-pyrrolid-3-yl)propanoic acid)] |  |

| Structure (SMILES) | IC90 (Lp(a)) | further results |
| --- | --- | --- |
| O=C(O)[C@@H](Cc1cccc(CN(CCc2ccccc2C[C@H](C(=O)O)[C@H]2CCNC2)S(=O)(=O)c2cccc(C[C@H](C(=O)O)[C@H]3CCNC3)c2)c1)[C@H]1CCNC1 [Compound 3] | 61 nM | AUC(0-t) (in vivo; iv, 0.5 mg/kg): 33300 ng·h/mL; half-life (in vivo; iv, 0.5 mg/kg): 31.6 h |
| O=C(O)[C@@H](Cc1cccc(CN(Cc2cc(C[C@H](C(=O)O)[C@H]3CCNC3)c(F)cc2F)S(=O)(=O)c2cccc(C[C@H](C(=O)O)[C@H]3CCNC3)c2)c1)[C@H]1CCNC1 [Compound 15] | 16 nM |  |
